Data reported in ChEMBL document CHEMBL5625240, “Synthesis and evaluation of 2-NMPA derivatives as potential agents for prevention of osteoporosis in vitro and in vivo” (Eur J Med Chem, 2023).
“And” between values parts separate entries of the source, which are not always exact repeats. Identical values can stand only once. The source made the active and inactive calls. The calls are words filed in the database; no cut-off is given here.

Columns and labels:
BMDM [1] = experiment: Anti-osteoporosis activity in mouse BMDM cells assessed as inhibition of RANKL-induced osteoclastogenesis at 1 uM measured for 30 mins in presence of MCSF by TRAP staining based assay; assay type: functional; conditions: 0.5 h
BMDM [2] = experiment: Anti-osteoporosis activity in mouse BMDM cells assessed as inhibition of RANKL-induced osteoclastogenesis at 2 uM measured for 30 mins in presence of MCSF by TRAP staining based assay; assay type: functional; conditions: for inhibition at 2 µM: Mus musculus, BMDM
BMDM [3] = experiment: Anti-osteoclastogenesis activity in RANKL/M-CSF-induced mouse BMDM cells assessed as inhibition of TRAF6 protein expression at 1 uM measured for 4 days; assay type: functional, cell-based; conditions: time 4.0 day
BMDM [4] = experiment: Inhibition of RANKL/M-CSF-induced osteoclastogenesis in mouse BMDM cells assessed as decrease in Dc-stamp mRNA level at 1 uM incubated for 4 days by qRT-PCR analysis; assay type: functional, cell-based; conditions: time 4.0 day
BMDM [5] = experiment: Downregulation of NFATc1 expression in mouse RANKL-induced BMDM cells at 1 uM incubated for 4 days by Western blot analysis; assay type: functional, cell-based; conditions: time 4.0 day
BMDM [6] = experiment: Anti-osteoporosis activity in mouse BMDM cells assessed as inhibition of RANKL/M-CSF-induced osteoclasts formation measured for 4 days by TRAP staining based assay; assay type: functional, cell-based
Mus musculus [7] = experiment: Anti-osteoporosis activity in OVX-induced osteoporosis C57BL/6 mouse model assessed as recovery of trabecular volume in femur at 10 mg/kg, ip daily for 4 weeks by micro computed tomographic analysis; assay type: functional, organism-based
BMDM [8] = experiment: Inhibition of NF-kappaB phosphorylation in RANKL/M-CSF-induced mouse BMDM cells by Western blot analysis; assay type: cell-based; conditions: dose 1.0 µM
Mus musculus [9] = experiment: Anti-osteoporosis activity in OVX-induced osteoporosis C57BL/6 mouse model assessed as recovery of trabecular number in femur at 10 mg/kg, ip daily for 4 weeks by micro computed tomographic analysis; assay type: functional, organism-based
BMDM [10] = experiment: Inhibition of RANKL/M-CSF-induced osteoclastogenesis in mouse BMDM cells assessed as decrease in bone resorption pit number at 500 to 2000 nM incubated for 6 days by microscopic analysis; assay type: functional, cell-based; conditions: dose 500-2000 nM, time 6.0 day
BMDM [11] = experiment: Inhibition of RANKL/M-CSF-induced osteoclastogenesis in mouse BMDM cells assessed as reduction in F-actin belt size formation at 500 to 2000 nM incubated for 6 days by immunofluorescence assay; assay type: functional, cell-based; conditions: dose 500-2000 nM, time 6.0 day
Mus musculus [12] = experiment: Anti-osteoporosis activity in OVX-induced osteoporosis C57BL/6 mouse model assessed as recovery of bone surface density in femur at 10 mg/kg, ip daily for 4 weeks by micro computed tomographic analysis; assay type: functional, organism-based
Mus musculus [13] = experiment: Anti-osteoporosis activity in OVX-induced osteoporosis C57BL/6 mouse model assessed as prevention of bone loss in femur at 10 mg/kg, ip daily for 4 weeks by micro computed tomographic analysis; assay type: functional, organism-based
BMDM [14] = experiment: Anti-osteoclastogenesis activity in mouse BMDM cells assessed as inhibition of RANKL/M-CSF-induced osteoclasts differentiation at below 2 uM measured for 9 days by […] staining based assay; assay type: functional, cell-based; conditions: time 9.0 day
[15] = biological target: T1, NF-kappa-B inhibitor alpha (Mus musculus) (UniProt Q9Z1E3); experiment: Inhibition of IkappaBalpha phosphorylation in RANKL/M-CSF-induced mouse BMDM cells by Western blot analysis; assay type: cell-based; conditions: dose 1.0 µM
T1 sequence (whole entry): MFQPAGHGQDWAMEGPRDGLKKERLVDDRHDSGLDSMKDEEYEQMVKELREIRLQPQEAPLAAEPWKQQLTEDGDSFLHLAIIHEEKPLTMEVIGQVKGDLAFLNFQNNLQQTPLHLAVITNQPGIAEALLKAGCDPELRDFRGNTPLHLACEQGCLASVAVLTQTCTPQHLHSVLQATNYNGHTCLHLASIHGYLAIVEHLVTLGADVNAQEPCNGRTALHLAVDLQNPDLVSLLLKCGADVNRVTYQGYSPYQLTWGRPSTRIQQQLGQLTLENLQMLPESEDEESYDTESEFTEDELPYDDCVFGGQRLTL

BMDM [16] = experiment: Inhibition of RANKL/M-CSF-induced osteoclastogenesis in mouse BMDM cells assessed as decrease in Atp6v0d2 mRNA level at 1 uM incubated for 4 days by qRT-PCR analysis; assay type: functional, cell-based; conditions: time 4.0 day
BMDM [17] = experiment: Inhibition of RANKL/M-CSF-induced osteoclastogenesis in mouse BMDM cells assessed as decrease in Mmp9 mRNA level at 1 uM incubated for 4 days by qRT-PCR analysis; assay type: functional, cell-based; conditions: time 4.0 day
BMDM [18] = experiment: Cytotoxicity against mouse BMDM cells assessed as reduction in cell viability at < 4 uM incubated for 48 hrs; assay type: toxicity, cell-based
BMDM [19] = experiment: Anti-osteoclastogenesis activity in mouse BMDM cells assessed as inhibition of RANKL/M-CSF-induced osteoclasts differentiation at 2 uM measured for 9 days by […] staining based assay; assay type: functional; conditions: 216 h, time 9 day
BMDM [20] = experiment: Downregulation of CTSK expression in RANKL-induced mouse BMDM cells at 1 uM incubated for 4 days by Western blot analysis; assay type: functional, cell-based; conditions: time 4.0 day
BMDM [21] = experiment: Inhibition of RANKL/M-CSF-induced osteoclastogenesis in mouse BMDM cells assessed as reduction in F-actin belt size formation at 1 uM incubated for 6 days by immunofluorescence assay; assay type: functional, cell-based; conditions: time 6.0 day
BMDM [22] = experiment: Inhibition of RANKL/M-CSF-induced osteoclastogenesis in mouse BMDM cells assessed as decrease in Nfatc1 mRNA level at 1 uM incubated for 4 days by qRT-PCR analysis; assay type: functional, cell-based; conditions: time 4.0 day
BMDM [23] = experiment: Inhibition of RANKL/M-CSF-induced osteoclastogenesis in mouse BMDM cells assessed as reduction in F-actin belt size formation at 1000 nM incubated for 6 days by immunofluorescence assay; assay type: functional, cell-based; conditions: time 6.0 day
BMDM [24] = experiment: Downregulation of TRAF6 expression in RANKL-induced mouse BMDM cells at 1 uM incubated for 4 days by Western blot analysis; assay type: functional, cell-based; conditions: time 4.0 day
BMDM [25] = experiment: Downregulation of c-src expression in RANKL-induced mouse BMDM cells at 1 uM incubated for 4 days by Western blot analysis; assay type: functional, cell-based; conditions: time 4.0 day
BMDM [26] = experiment: Inhibition of AKT phosphorylation in RANKL/M-CSF-induced mouse BMDM cells by Western blot analysis; assay type: cell-based; conditions: dose 1.0 µM
Mus musculus [27] = experiment: Anti-osteoporosis activity in OVX-induced osteoporosis C57BL/6 mouse model assessed as reduction in […] level in serum at 10 mg/kg, ip daily for 4 weeks; assay type: functional, organism-based
BMDM [28] = experiment: Inhibition of PI3K phosphorylation in RANKL/M-CSF-induced mouse BMDM cells by Western blot analysis; assay type: cell-based; conditions: dose 1.0 µM
BMDM [29] = experiment: Inhibition of RANKL/M-CSF-induced osteoclastogenesis in mouse BMDM cells assessed as decrease in CTSK mRNA level at 1 uM incubated for 4 days by qRT-PCR analysis; assay type: functional, cell-based; conditions: time 4.0 day
BMDM [30] = experiment: Inhibition of RANKL/M-CSF-induced osteoclastogenesis in mouse BMDM cells assessed as decrease in Acp5 mRNA level at 1 uM incubated for 4 days by qRT-PCR analysis; assay type: functional, cell-based; conditions: time 4.0 day
BMDM [31] = experiment: Downregulation of c-fos expression in RANKL-induced mouse BMDM cells at 1 uM incubated for 4 days by Western blot analysis; assay type: functional, cell-based; conditions: time 4.0 day
BMDM [32] = experiment: Inhibition of RANKL/M-CSF-induced osteoclastogenesis in mouse BMDM cells assessed as decrease in bone resorption pit size at 500 to 2000 nM incubated for 6 days by microscopic analysis; assay type: functional, cell-based; conditions: dose 500-2000 nM, time 6.0 day
Mus musculus [33] = experiment: Anti-osteoporosis activity in OVX-induced osteoporosis C57BL/6 mouse model assessed as recovery of trabecular separation in femur at 10 mg/kg, ip daily for 4 weeks by micro computed tomographic analysis; assay type: functional, organism-based
BMDM [34] = experiment: Inhibition of RANKL/M-CSF-induced osteoclastogenesis in mouse BMDM cells assessed as decrease in bone resorption pit size at 1000 nM incubated for 6 days by microscopic analysis; assay type: functional, cell-based; conditions: time 6.0 day
BMDM [35] = experiment: Anti-osteoporosis activity in mouse BMDM cells assessed as inhibition of […]-induced osteoclastogenesis at 2 uM measured for 30 mins in presence of MCSF by TRAP staining based assay; assay type: functional; conditions: 0.5 h

## O=C(COc1ccccc1Cl)Nc1ccc(OS(=O)(=O)C(F)(F)F)cc1N1CCOCC1
BMDM [1]
  inhibition at 1 µM: 50.5%

## CC(C)(C)[Si](C)(C)Oc1ccc(NC(=O)COc2ccccc2Cl)c(N2CCOCC2)c1
BMDM [1]
  inhibition at 1 µM: 34.8%

## Cc1ccc(S(=O)(=O)CC(=O)Nc2cc(Cl)ccc2N2CCOCC2)cc1
BMDM [2]; 0.5 h
  inhibition at 2 µM: 30.9%

## O=C(COc1ccccc1Cl)Nc1ccc(O)cc1N1CCOCC1
BMDM [1]
  inhibition at 1 µM: 27.1%

## O=C(COc1ccccc1Cl)Nc1ccc(OC(=O)c2ccco2)cc1N1CCOCC1
BMDM [1]
  inhibition at 1 µM: 31.4%

## O=C(CSc1cccc2ccccc12)Nc1ccccc1N1CCOCC1
BMDM [2]; 0.5 h
  inhibition at 2 µM: 61.3%

## CC(=O)Nc1ccc(S(=O)(=O)Oc2ccc(NC(=O)COc3ccccc3Cl)c(N3CCOCC3)c2)cc1
BMDM [3]
  Activity: Active
BMDM [4]
  inhibition: Active
BMDM [5]
  Activity: Active
BMDM [6]; 96 h
  IC50: 358 nM
BMDM [6]; dose <= 4000.0 nM, time 4.0 day
  inhibition: Dose-Dependent Effect
Mus musculus [7]
  Activity: Active
BMDM [8]
  inhibition: Active
Mus musculus [9]
  Activity: Active
BMDM [1]
  inhibition at 1 µM: 61.5%
BMDM [10]
  inhibition: Active
BMDM [11]
  inhibition: Active
Mus musculus [12]
  Activity: Active
Mus musculus [13]
  Activity: Active
BMDM [14]
  inhibition: inactive
[15]
  inhibition: Active
BMDM [16]
  inhibition: Active
BMDM [17]
  inhibition: Active
BMDM [18]
  Activity: Non-Toxic
BMDM [19]
  inhibition at 2 µM: 100%
BMDM [20]
  Activity: Active
BMDM [21]
  inhibition: Active
BMDM [22]
  inhibition: Active
BMDM [23]
  inhibition: Active
BMDM [24]
  Activity: Active
BMDM [25]
  Activity: Active
BMDM [26]
  inhibition: Active
Mus musculus [27]
  Activity: Active
BMDM [28]
  inhibition: Active
BMDM [29]
  inhibition: Active
BMDM [30]
  inhibition: Active
BMDM [31]
  Activity: Active
BMDM [32]
  inhibition: Active
Mus musculus [33]
  Activity: Active

## CCC(=O)Oc1ccc(NC(=O)COc2ccccc2Cl)c(N2CCOCC2)c1
BMDM [1]
  inhibition at 1 µM: 32.8%

## CCCN(CCC)S(=O)(=O)c1ccc(C(=O)Oc2ccc(NC(=O)COc3ccccc3Cl)c(N3CCOCC3)c2)cc1
BMDM [1]
  inhibition at 1 µM: 21.6%

## CCC(=O)N1CCN(c2ccccc2NC(=O)COc2ccccc2Cl)CC1
BMDM [34]
  inhibition: Active
BMDM [1]
  inhibition at 1 µM: 42%
Mus musculus [27]
  Activity: Active

## Cc1cccc(OCC(=O)Nc2ccccc2N2CCOCC2)c1C
BMDM [2]; 0.5 h
  inhibition at 2 µM: 13.6%

## CC(C)(C)OC(=O)N[C@@H](Cc1cn(C(=O)OC(C)(C)C)cn1)C(=O)Oc1ccc(NC(=O)COc2ccccc2Cl)c(N2CCOCC2)c1
BMDM [1]
  inhibition at 1 µM: 34.6%

## O=C(COc1ccccc1Cl)Nc1ccc(OC(=O)c2cccs2)cc1N1CCOCC1
BMDM [1]
  inhibition at 1 µM: 39.3%

## Cc1cc(OCC(=O)Nc2ccccc2N2CCOCC2)cc(C)c1Cl
BMDM [2]
  inhibition: inactive

## Cc1ccc(OCC(=O)Nc2cccc(Cl)c2N2CCOCC2)c(C(C)C)c1
BMDM [35]
  inhibition at 2 µM: 82.9%
BMDM [2]; 0.5 h
  inhibition at 2 µM: 86.4%

## COC(=O)c1ccc(N2CCOCC2)c(NC(=O)COc2cccc(C)c2)c1
BMDM [1]
  inhibition at 1 µM: 52.5%
BMDM [35]
  inhibition at 2 µM: 2.77%
BMDM [2]; 0.5 h, 2 µM
  inhibition (INH): 94.58% and 52.52%

## O=C(COc1ccccc1Cl)Nc1ccc(OC(=O)c2ccccc2F)cc1N1CCOCC1
BMDM [1]
  inhibition at 1 µM: 34.2%

## O=C(COc1ccccc1Cl)Nc1ccccc1N1CCOCC1
BMDM [1]
  inhibition at 1 µM: 21%

## NCCCC(O)(P(=O)(O)O)P(=O)(O)O [ALENDRONIC ACID]
BMDM [2]; 0.5 h
  inhibition at 2 µM: 67.9%

## Cc1cc(=O)oc2cc(OCC(=O)Nc3cc(C(F)(F)F)ccc3N3CCOCC3)ccc12
BMDM [35]
  inhibition at 2 µM: 29.4%
BMDM [2]; 0.5 h
  inhibition at 2 µM: 95.3%

## CC(=O)Nc1ccc(S(=O)(=O)Oc2ccc(N)c(N3CCOCC3)c2)cc1
BMDM [1]
  inhibition at 1 µM: 11.3%

## O=C(CS(=O)(=O)c1ccccc1)Nc1cccc(Cl)c1N1CCOCC1
BMDM [2]; 0.5 h
  inhibition at 2 µM: 62.1%

## CS(=O)(=O)N(CC(=O)Nc1ccccc1Sc1ccccc1)c1cccc(C(=O)Oc2ccc(NC(=O)COc3ccccc3Cl)c(N3CCOCC3)c2)c1
BMDM [1]
  inhibition at 1 µM: 50.9%

## CC(Oc1ccc(Cl)cc1Cl)C(=O)Nc1cccc(Cl)c1N1CCOCC1 (configuration not stated)
BMDM [2]; 0.5 h
  inhibition at 2 µM: 43.4%
